Laboratory results from US8298756B2, “Isolation, gene expression, and chemotherapeutic resistance of motile cancer cells” (Albert Einstein College of Medicine of Yeshiva University, priority 2004, dated 2012).

How the values were obtained:
[1] = tested on: invasive cells and general population of carcinoma cells from MTLn3-derived tumors; assay: Cell culture and apoptosis assay (Annexin V-Cy5 / PI) after drug challenge, invasive cells vs general population; format: cell-based, rat; conditions: for drug tolerance (apoptotic index and cell viability) of invasive cells: as a percentage of all carcinoma cells, invasive vs general population of tumor cells, 24 hr recovery after drug, FIG. 3; for drug induced apoptotic index / cell death: invasive cells compared to carcinoma cells of the whole tumor, doxorobucin 17 μM, cisplatin 50 μM, etoposide 50 μM for 1 hr, 24 hrs recovery; for drug induced apoptotic index: Annexin V-Cy5; for cell death: PI staining
Protocol: The cells collected by the needle collection procedure were subjected to drug challenge using doxorobucin (17 μM), cisplatin (50 μM) or etoposide (50 μM). The apoptotic status and viability of these cells was assessed by staining with propedium iodide (PI) and Annexin V-Cy5. […] The graph represents viability status and apoptotic index of the cells after being challenged by the anticancer drugs. Cell culture and apoptosis assay. The cells extruded from the needles and tumor cells FACS sorted were cultured in DMEM 20% FCS along with streptomycin and penicillin, for 16 hrs. Subsequently, the cells were challenged with either doxorobucin (17 μM) or cisplatin (50 μM) or etoposide (50 μM) for 1 hr, washed and allowed to recover for 24 hrs. The cells were then subjected to an apoptosis assay kit containing Annexin V Cy5 for staining the apoptotic cells and Propedium Iodide (PI) for staining the dead cells (BD Biosciences San Jose, Calif.). After staining the cells using the manufacturer's protocol, the cells were observed under a fluorescent microscope in the green, red and high red channel for GFP, PI and Cy5 respectively. The total number of GFP cells counted was compared to the number of PI positive and Annexin V-Cy5 positive cells. […] We challenged the invasive cells with three most commonly used anticancer drugs, doxorobucin, cisplatin and etoposide. […] We performed these studies on the invasive and general populations of cells from MTLn3-derived tumors. After treatment with the drugs the cells were allowed to recover for 24 hr. Subsequently, the apoptotic index and cell viability was measured as described in the Methods section.

MTLn3 cells = conditions: previous studies (Huigsloot et al., 2002); cited from earlier work

N.N.[Cl][Pt][Cl] [cisplatin]
drug tolerance (apoptotic index and cell viability) of invasive cells [1]: invasive cells are able to tolerate all three drugs better than the general population of tumor cells | drug induced apoptotic index [1]: lower drug induced apoptotic index | cell death [1]: lower cell death | induction of apoptosis (MTLn3 cells): induce apoptosis

COc1cccc2c1C(=O)c1c(O)c3c(c(O)c1C2=O)C[C@@](O)(C(=O)CO)C[C@@H]3O[C@H]1C[C@H](N)[C@H](O)[C@H](C)O1 [doxorubicin]
drug tolerance (apoptotic index and cell viability) of invasive cells [1]: invasive cells are able to tolerate all three drugs better than the general population of tumor cells | drug induced apoptotic index [1]: lower drug induced apoptotic index | cell death [1]: lower cell death | induction of apoptosis (MTLn3 cells): induce apoptosis

COc1cc([C@@H]2c3cc4c(cc3[C@@H](O[C@@H]3O[C@@H]5CO[C@@H](C)O[C@H]5[C@H](O)[C@H]3O)[C@H]3COC(=O)[C@H]23)OCO4)cc(OC)c1O [etoposide]
drug tolerance (apoptotic index and cell viability) of invasive cells [1]: invasive cells are able to tolerate all three drugs better than the general population of tumor cells | drug induced apoptotic index [1]: lower drug induced apoptotic index | cell death [1]: lower cell death | induction of apoptosis (MTLn3 cells): induce apoptosis
